The source of these data is PubChem BioAssay AID179 (DTP/NCI, 2004).

The test system of the assay is CEM cells HIV-1 protection, formazan growth assay. As to the kind of experiment: NCI AIDS Antiviral Assay. The settings on record: for pIC50: measured here: growth of uninfected CEM cells. A digest of the protocol: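 Protection of CEM cells against HIV-1 measured as cell growth via soluble formazan read-out, with five concentrations tested on both infected and uninfected cells; failure to protect may reflect toxicity.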

SMILES strings stand for the structures. pEC50, pIC50: −log10 of the molar value. Activity calls are given as the source filed them.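 How the source made its calls: active means compounds giving half or more protection of infected cells from virus-caused growth loss, again on retest; inactive means the rest.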 Some results are limits rather than exact numbers.

On to `O=C1OC2C(O)COC23OC(O)CCC13O` (stereo not drawn), for which the pEC50 is less than 3.70 and the pIC50 was less than 3.70.
Consider `c1ccc(COc2ncccc2C2SCCCS2)cc1`, for which the pEC50 was less than 3.70 and the negative-log IC50 (pIC50) was less than 3.70.
As for `COc1ccccc1NC(=O)C1=C(C)NC(C)=C(C(=O)Nc2ccccc2OC)C1c1ccc([N+](=O)[O-])cc1`, the pEC50 was less than 5.01 and the pIC50 is less than 5.01.
Compound `C=CC(=O)N1C/C(=C\c2ccc([N+](=O)[O-])cc2)C(=O)/C(=C/c2ccc([N+](=O)[O-])cc2)C1` showed a pEC50 of less than 3.70 and a pIC50 of 7.20.
Taken in the same sequence, the figures for `COc1ccc(C2ON(c3ccccn3)CC=C2C)cc1` (stereo not drawn) were less than 4.04 and 4.08.
The corresponding values for `Cc1nc2n(C)c3ncn(Cc4ccccc4)c3c(=O)n2c1/C=C/C(C)C` are less than 4.48 and less than 4.48.
As to `CC(=O)OCC1OC(N2C(=O)[C@@H](Oc3ccccc3)[C@H]2/C=C/c2ccccc2)C(OC(C)=O)C(OC(C)=O)C1OC(C)=O` (stereo partly drawn), the pEC50 was less than 4.78 and the pIC50 was less than 4.78.
On to `O=C(CN1CCC(O)(c2ccc(F)cc2)CC1)N1CCN(C/C=C/c2ccccc2)CC1`, for which the pEC50 is less than 3.70 and the pIC50 is 4.54.
As to `Cc1ncc([N+](=O)[O-])n1CC(O)Cn1ccnc1[N+](=O)[O-]` (stereo not drawn), the pEC50 was less than 3.70 and the pIC50 was less than 3.70.
Regarding `Cc1ccccc1N=NC(C(=O)c1ccccc1)C(=O)c1ccccc1`, the pEC50 is less than 4.68 and the pIC50 was 4.83.
The corresponding values for `C[N+](C)(C)CC1CCC/C1=N/O` (stereo not drawn) are less than 3.08 and less than 3.08.
On to `Cc1ccc(C)c(NC(=O)CCc2n[nH]c(=S)o2)c1`, for which the pEC50 was less than 5.03 and the pIC50 is less than 5.03.
As for `Cn1c(=O)oc2nc(-c3ccccc3)cc(C(F)(F)F)c21`, the pEC50 was less than 3.70 and the pIC50 was 4.72.
The corresponding values for `O=C1c2ccccc2C(=O)N1CCC[P+](c1ccccc1)(c1ccccc1)c1ccccc1` are less than 3.70 and 4.02.
Consider `O=C1Nc2ccccc2C12CCCC2`, for which the outcome was inactive.
With `COc1cc2ccc(C(=O)NCCCNC(=O)c3ccc4cc(OC)c(OC)cc4c3)cc2cc1OC`, the pEC50 was 3.90 and the pIC50 was less than 3.70.
The corresponding values for `Cc1cc([C@H](C#N)c2nc3ccccc3s2)nc(Cl)n1` are less than 4.82 and 5.98.
Taken in the same sequence, the figures for `CC(=S)N=Cc1c(C)[nH]n(-c2ccccc2)c1=O` were less than 4.00 and 4.38.
Taken in the same sequence, the figures for `C=C1CN(S(=O)(=O)c2ccc(C)cc2)CCCN(CC(C)CC)CCCN(S(=O)(=O)c2ccc(C)cc2)C1` (stereo not drawn) were less than 4.23 and 5.59.
For `COC(=O)CC(NC(=O)OCc1ccccc1)C(C(=O)OCc1ccccc1)C(C)(OC)OC` (stereo not drawn), the pEC50 was less than 4.30 and the pIC50 is 4.69.
Regarding `Cc1cc(=O)oc2cc(OCC(O)COC(C)C)ccc12` (stereo not drawn), the pEC50 was less than 3.70 and the pIC50 was 3.89.
On to `Cc1c2ccnc(C(N)=O)c2c(C)c2c1[nH]c1ccccc12`, for which the result was inactive.
For `CC(=O)Nc1ccc(/C=C2\SC(=S)N(C=C(C#N)C#N)C2=O)cc1`, the pEC50 is less than 3.70 and the pIC50 was 4.31.
Taken in the same sequence, the figures for `C=C(C)CCC[C@@H](C)C1CCC2(C)[C@@H]3CCC4C(C)(C)[C@@H](O)CC[C@@]45C[C@@]35CC[C@]12C` (stereo partly drawn) were less than 3.70 and 4.33.
Taken in the same sequence, the figures for `C/C(Cl)=N\OC(=O)Nc1ccccc1C(F)(F)F` were less than 3.70 and 4.48.
With `S=C(/N=N/c1[nH]c2ccccc2c1NNC(=S)NC12CC3CC(CC(C3)C1)C2)NC12CC3CC(CC(C3)C1)C2`, the outcome was inactive.
Take `O=Nc1cc(S(=O)(=O)O)c2cccnc2c1O`: the pEC50 is less than 3.70 and the pIC50 is 4.28.
Taken in the same sequence, the figures for `C[N+]1(CCCl)CCc2cc([N+](=O)[O-])ccc2C1` (stereo not drawn) were less than 3.70 and less than 3.70.
On to `CN(C)CCCN=c1c2ccccc2n(O)c2ccccc12`, for which the pEC50 was less than 3.70 and the pIC50 is 5.09.
For `CCCCCC(=O)OC1CN2CC[C@H](O)C2C(O)[C@@H]1O` (stereo partly drawn), the result was inactive.
Take `CN(C)c1ccc(N=Nc2cccc3ncccc23)cc1`: the pEC50 is less than 3.70 and the pIC50 was 4.14.
Taken in the same sequence, the figures for `CSC12c3cc(C)n(-c4ccc([N+](=O)[O-])cc4)c3CC(C)(C)CN1C(=O)C2Oc1ccccc1` (stereo not drawn) were less than 3.70 and 4.31.
Taken in the same sequence, the figures for `CC1=C(C(=O)NNC(=O)C[N+](C)(C)C)CC(C(=O)NNC(=O)C[N+](C)(C)C)=C(C)N1` were less than 3.70 and 4.02.
As for `COC(=O)C(C(=O)C(=O)Nc1cccc([N+](=O)[O-])c1)c1nc2ccc([N+](=O)[O-])cc2[nH]c1=O` (stereo not drawn), the pEC50 is less than 3.26 and the pIC50 is 3.51.
Taken in the same sequence, the figures for `O=C(O)/C=C/C=C/c1ccccc1` were less than 3.70 and less than 3.70.
The corresponding values for `CC/C(Cl)=N\OC(=O)NCc1ccc(F)cc1` are less than 4.70 and 5.35.
The corresponding values for `CCOC(=O)Nc1ccc(/C=C\c2ccnc3ccccc23)cc1` are less than 4.79 and 5.00.
In the case of `OC(c1ccccc1)c1c(-c2ccccc2)[nH]c(-c2ccccc2)c1C(O)c1ccccc1` (stereo not drawn), the result was inactive.
Consider `O=C1/C(=C\c2cccc(Oc3ccccc3)c2)SC(c2ccccc2)N1c1ccccc1Cl` (stereo not drawn), for which the pEC50 is less than 4.70.
With `NCCc1cc2c3c(c1)CCCN3CCC2`, the pEC50 was less than 3.70 and the negative logarithm of the IC50 (pIC50) is 4.95.
Take `c1cnn([B-]2(n3cccn3)n3ccc[n+]3[B-](n3cccn3)(n3cccn3)n3ccc[n+]32)c1`: the pEC50 was less than 3.70 and the pIC50 is less than 3.70.
As to `O=c1[nH][nH]c2c1SCc1ccccc1-2`, the pEC50 was less than 3.02 and the pIC50 is 3.33.
Taken in the same sequence, the figures for `CN(C)c1ccc(N=Nc2ccc3c(c2)C(=O)c2ccccc2C3=O)cc1` were less than 3.70 and less than 3.70.
As to `O=C(C1OC1c1ccc(Cl)cc1)C12CC3CC(CC(C3)C1)C2` (stereo not drawn), the pEC50 is less than 3.70 and the pIC50 was 4.74.
For the compound `CC(C)OC(=O)C1Cc2c([nH]c3ccccc23)C(c2ccccc2)N1` (stereo not drawn), the outcome was inactive.
As to `N#Cc1c(-c2ccccc2)cn2c1[nH]c(=O)c1ccccc12`, the pEC50 is less than 3.70 and the pIC50 was 4.52.
`COc1ccc(Br)c(CCC(CO)C2=CCC3(CC2)OCCO3)c1` (stereo not drawn): the pEC50 was 4.80 and the pIC50 is 4.06.
The corresponding values for `CN1Cc2c(ccc3c2OCO3)C2C(O)Cc3cc4c(cc3C21)OCO4` (stereo not drawn) are less than 6.04 and 6.63.
In the case of `CCCCCCCCCC(=O)NC(Cc1ccc(O)cc1)C(=O)NCCCNCCCCNCCCNC(=O)[C@@H](N)CCCN=C(N)N` (stereo partly drawn), the pEC50 is less than 4.16 and the pIC50 is 4.23.
`CSc1sc(C)cc1-c1nsc(=O)o1`: the pEC50 was less than 3.70 and the pIC50 was less than 3.70.
On to `O=C1Nc2ccccc2NC(=O)C1(O)O`, for which the pEC50 is less than 3.70 and the negative-log IC50 (pIC50) was less than 3.70.
As to `CN(C)c1ccc(/C=C/c2ccc(/C=C/c3ccc(N(C)C)cc3)cc2)cc1`, the result was inactive.
As to `COC(=O)C1=C(C(=O)OC)C2C(C)=CC(C)=CN2C(C#N)=C(SC)S1` (stereo not drawn), the pEC50 is less than 4.86 and the pIC50 was less than 4.86.
